Results as given in US12077503B2, “Substituted cyclic amides and their use as herbicides” (FMC CORPORATION, priority 2015, dated 2024).

Key:
Type in all cases: in vivo
[1] = system: barnyardgrass (Echinochloa crus-galli); test: Test G Pre-Emergence Protocol; settings: Echinochloa crus-galli, pre-emergence, 312 h, evaluated after 13 days
Outline: (§1)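 Under a 24/16° C day/night regime with 14 h light and 65% humidity, sown pots were sprayed after one day with compound (15.625, 62.5 or 250 g/ha; 50:50 acetone/water, 0.5% Tween 20). Damage was assessed visually 13 days later, 0 to 100.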

[2] = system: corn (Zea mays); test: Test G Pre-Emergence Protocol; settings: Zea mays, pre-emergence, 312 h, evaluated after 13 days
Outline: as §1

[3] = system: giant foxtail (Setaria faberi); test: Test G Pre-Emergence Protocol; settings: Setaria faberi, pre-emergence, 312 h, evaluated after 13 days
Outline: as §1

[4] = system: ivy-leaved morning glory (Ipomoea hederacea); test: Test G Pre-Emergence Protocol; settings: Ipomoea, pre-emergence, 312 h, evaluated after 13 days
Outline: as §1

[5] = system: redroot pigweed (Amaranthus retroflexus); test: Test G Pre-Emergence Protocol; settings: Amaranthus retroflexus, pre-emergence, 312 h, evaluated after 13 days
Outline: as §1

[6] = system: velvetleaf (Abutilon theophrasti); test: Test G Pre-Emergence Protocol; settings: Abutilon theophrasti, pre-emergence, 312 h, evaluated after 13 days
Outline: as §1

[7] = system: barnyardgrass (Echinochloa crus-galli); test: Test G Post-Emergence Protocol; settings: Echinochloa crus-galli, post-emergence, 312 h
Outline: (§2)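 Foliar application was made 8 days after sowing, using an aqueous spray of the active in acetone/water (50:50) with 0.5% Tween 20, at doses of 15.625, 62.5 or 250 g/ha. Injury was assessed 13 days later, where 100 meant the plant was fully damaged.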

[8] = system: corn (Zea mays); test: Test G Post-Emergence Protocol; settings: Zea mays, post-emergence, 312 h
Outline: as §2

[9] = system: giant foxtail (Setaria faberi); test: Test G Post-Emergence Protocol; settings: Setaria faberi, post-emergence, 312 h
Outline: as §2

[10] = system: ivy-leaved morning glory (Ipomoea hederacea); test: Test G Post-Emergence Protocol; settings: Ipomoea, post-emergence, 312 h
Outline: as §2

[11] = system: redroot pigweed (Amaranthus retroflexus); test: Test G Post-Emergence Protocol; settings: Amaranthus retroflexus, post-emergence, 312 h
Outline: as §2

[12] = system: velvetleaf (Abutilon theophrasti); test: Test G Post-Emergence Protocol; settings: Abutilon theophrasti, post-emergence, 312 h
Outline: as §2

CN1C[C@@H](c2ccc(C(F)(F)F)cc2)[C@H](C(=O)Nc2cc(C(F)(F)F)n(C)n2)C1=O (racemic) [Compound 1512]
0%: pest or weed control at 15.625 g/ha ([1]; 15.625 g ai/ha, read-out: Barnyard grass damage rating (100=total damage to plant; 0=no damage to plant)) | pest or weed control at 62.5 g/ha ([1]; 62.5 g ai/ha, 100=total damage to plant, 0=no damage to plant, read-out: plant damage rating, Barnyardgrass) | pest or weed control at 250 g/ha ([1]; 250 g ai/ha, read-out: Barnyardgrass damage rating (100=total damage to plant; 0=no damage to plant)) | plant injury at 15.625 g/ha ([2]; 15.625 g ai/ha, read-out: Corn damage rating (100=total damage to plant; 0=no damage to plant)) | plant injury at 62.5 g/ha ([2]; 62.5 g ai/ha, 100=total damage to plant, 0=no damage to plant, read-out: plant damage rating, Corn) | plant injury at 250 g/ha ([2]; 250 g ai/ha, read-out: Corn damage rating (100=total damage to plant; 0=no damage to plant)) | pest or weed control at 15.625 g/ha ([3]; 15.625 g ai/ha, read-out: Foxtail, Giant damage rating (100=total damage to plant; 0=no damage to plant)) | pest or weed control at 62.5 g/ha ([3]; 62.5 g ai/ha, 100=total damage to plant, 0=no damage to plant, read-out: plant damage rating, Foxtail, Giant) | pest or weed control at 250 g/ha ([3]; 250 g ai/ha, read-out: Foxtail, Giant damage rating (100=total damage to plant; 0=no damage to plant)) | pest or weed control at 15.625 g/ha ([4]; 15.625 g ai/ha, read-out: Morning-glory, Ivy-leaved damage rating (100=total damage to plant; 0=no damage to plant)) | pest or weed control at 62.5 g/ha ([4]; 62.5 g ai/ha, 100=total damage to plant, 0=no damage to plant, read-out: plant damage rating, Morningglory, Ivy-leaved) | pest or weed control at 250 g/ha ([4]; 250 g ai/ha, read-out: Morningglory, Ivy-leaved damage rating (100=total damage to plant; 0=no damage to plant)) | pest or weed control at 15.625 g/ha ([5]; 15.625 g ai/ha, read-out: Pigweed, Redroot damage rating (100=total damage to plant; 0=no damage to plant)) | pest or weed control at 62.5 g/ha ([5]; 62.5 g ai/ha, 100=total damage to plant, 0=no damage to plant, read-out: plant damage rating, Pigweed, Redroot) | pest or weed control at 250 g/ha ([5]; 250 g ai/ha, read-out: Pigweed, Redroot damage rating (100=total damage to plant; 0=no damage to plant)) | pest or weed control at 15.625 g/ha ([6]; 15.625 g ai/ha, read-out: Velvetleaf damage rating (100=total damage to plant; 0=no damage to plant)) | pest or weed control at 62.5 g/ha ([6]; 62.5 g ai/ha, 100=total damage to plant, 0=no damage to plant, read-out: plant damage rating, Velvetleaf) | pest or weed control at 250 g/ha ([6]; 250 g ai/ha, read-out: Velvetleaf damage rating (100=total damage to plant; 0=no damage to plant)) | pest or weed control at 15.625 g/ha ([7]; 15.625 g ai/ha, evaluated after 13 days (100=total damage to plant; 0=no damage to plant), read-out: Barnyardgrass damage rating) | pest or weed control at 62.5 g/ha ([7]; 62.5 g ai/ha, evaluated after 13 days, read-out: Barnyardgrass damage rating (100=total damage to plant; 0=no damage to plant)) | pest or weed control at 250 g/ha ([7]; 250 g ai/ha, evaluated after 13 days, read-out: damage to plant, Barnyardgrass (100=total damage to plant; 0=no damage to plant)) | plant injury at 15.625 g/ha ([8]; 15.625 g ai/ha, evaluated after 13 days (100=total damage to plant; 0=no damage to plant), read-out: Corn damage rating) | plant injury at 62.5 g/ha ([8]; 62.5 g ai/ha, evaluated after 13 days, read-out: Corn damage rating (100=total damage to plant; 0=no damage to plant)) | plant injury at 250 g/ha ([8]; 250 g ai/ha, evaluated after 13 days, read-out: damage to plant, Corn (100=total damage to plant; 0=no damage to plant)) | pest or weed control at 15.625 g/ha ([9]; 15.625 g ai/ha, evaluated after 13 days (100=total damage to plant; 0=no damage to plant), read-out: Foxtail, Giant damage rating) | pest or weed control at 62.5 g/ha ([9]; 62.5 g ai/ha, evaluated after 13 days, read-out: Foxtail, Giant damage rating (100=total damage to plant; 0=no damage to plant)) | pest or weed control at 250 g/ha ([9]; 250 g ai/ha, evaluated after 13 days, read-out: damage to plant, Foxtail, Giant (100=total damage to plant; 0=no damage to plant)) | pest or weed control at 15.625 g/ha ([10]; 15.625 g ai/ha, evaluated after 13 days (100=total damage to plant; 0=no damage to plant), read-out: Morningglory, Ivy-leaved damage rating) | pest or weed control at 62.5 g/ha ([10]; 62.5 g ai/ha, evaluated after 13 days, read-out: Morningglory, Ivy-leaved damage rating (100=total damage to plant; 0=no damage to plant)) | pest or weed control at 250 g/ha ([10]; 250 g ai/ha, evaluated after 13 days, read-out: damage to plant, Morningglory, Ivy-leaved (100=total damage to plant; 0=no damage to plant)) | pest or weed control at 15.625 g/ha ([11]; 15.625 g ai/ha, evaluated after 13 days (100=total damage to plant; 0=no damage to plant), read-out: Pigweed, Redroot damage rating) | pest or weed control at 62.5 g/ha ([11]; 62.5 g ai/ha, evaluated after 13 days, read-out: Pigweed, Redroot damage rating (100=total damage to plant; 0=no damage to plant)) | pest or weed control at 250 g/ha ([11]; 250 g ai/ha, evaluated after 13 days, read-out: damage to plant, Pigweed, Redroot (100=total damage to plant; 0=no damage to plant)) | pest or weed control at 15.625 g/ha ([12]; 15.625 g ai/ha, evaluated after 13 days (100=total damage to plant; 0=no damage to plant), read-out: Velvetleaf damage rating) | pest or weed control at 62.5 g/ha ([12]; 62.5 g ai/ha, evaluated after 13 days, read-out: Velvetleaf damage rating (100=total damage to plant; 0=no damage to plant)) | pest or weed control at 250 g/ha ([12]; 250 g ai/ha, evaluated after 13 days, read-out: damage to plant, Velvetleaf (100=total damage to plant; 0=no damage to plant))
